What was measured:
Entamoeba histolytica = test: MMV: Primary screening was performed with each compound at a 30 uM final concentration and in triplicate in sealed 96-well polystyrene microtiter plates. Parasite inocula (100 ul) comprising 20000 parasites/ml were added to each well and grown at 37 degrees C in a humidified atmosphere of 5% CO2 for 72 h. Positive controls consisted of metronidazole at 1 mg/ml. The growth of E. histolytica trophozoites in each well was determined microscopically by measuring the diameters of the confluent cells in drug-containing wells relative to those in the nega- tive-control wells.; type: functional, organism-based
Toxoplasma gondii = test: MMV: A total of 100ul of inoculum was added to each well (parasite/cell ratio, ~10:1; final volume, 200 ul). Six hours after inoculation, nonadherent parasites were removed, and 100 ul of complete DMEM (1% penicillin-streptomycin, 3% FBS) supplemented with inhibitors at different concentrations (2-fold serial dilutions starting from 30 uM) was added to all except the negative-control wells. Positive controls, consisting of pyrimethamine (PYR) and sulfadiazine (SDZ) (20-mg/ml stocks in DMSO), were tested at a 2mg/ml final concentration. Each test was performed in triplicate.; type: functional, organism-based; conditions: 6 h

Row | Structure (SMILES) | IC50 (Entamoeba histolytica) [µM] | IC50 (Toxoplasma gondii) [µM]
1 | O=C(Nc1ccc(Cl)c(Cl)c1)Nc1ccc(Cl)c(Cl)c1 | > 30 | > 30
2 | COc1ccc(-c2cc3c(nn2)-c2ccccc2C3=O)cc1 | > 30 | > 30
3 | COc1ccc(C2c3ccc4ccccc4c3Oc3ncn(CCCN(C)C)c(=N)c32)cc1 (centres undefined) | > 30 | > 30
4 | N=c1n(CCN2CCCCC2)c2ccccc2n1CC(=O)c1ccc(Cl)c(Cl)c1 | > 30 | > 30
5 | Nc1nc(Nc2cccc(F)c2)nc2ccccc12 | > 30 | 29
6 | COc1ccc(/C=C2/SC(=Nc3ccccc3)NC2=O)cc1 | > 30 | > 30
7 | c1ccc(/C2=N/c3ccccc3/N=C(/c3ccccc3)c3ccccc32)cc1 | > 30 | > 30
8 | COc1ccc(-c2nc(N3CCN(C(=O)C4CCCCC4)CC3)c3c4c(sc3n2)CCCC4)cc1 | > 30 | > 30
9 | O=C(NC1CCN(Cc2ccccc2)CC1)c1cc2nc(-c3ccc(Cl)s3)cc(C(F)(F)F)n2n1 | > 30 | > 30
10 | Cc1sc(NC(=O)c2ccccc2)c(C(c2cccs2)N2CCN(c3ccccc3)CC2)c1C (centres undefined) | > 30 | > 30
11 | Cc1sc(NC(=O)c2ccco2)c(C(c2cccnc2)N2CCC(Cc3ccccc3)CC2)c1C (centres undefined) | > 30 | > 30
12 | CCOC(=O)c1c(C)n(-c2ccccc2)c2ccc(OC(=O)c3cc(OC)c(OC)c(OC)c3)cc12 | > 30 | > 30
13 | COc1cc(C(=O)Nc2nc3c(cc4c5c(cccc53)CC4)s2)cc(OC)c1OC | > 30 | > 30
14 | COc1ccc(CCN2C(=O)c3[nH]nc(-c4cc(Cl)c(C)cc4O)c3C2c2ccccc2F)cc1 (centres undefined) | > 30 | > 30
15 | N#Cc1nc(Cc2cccc3ccccc23)oc1N1CCN(C(c2ccccc2)c2ccccc2)CC1 | > 30 | > 30
16 | COc1ccc(C2c3ccc4ccccc4c3Oc3ncn(CCCn4ccnc4)c(=N)c32)cc1OC (centres undefined) | > 30 | > 30
17 | CN(N=O)C1=C(NC2CCCCC2)C(=O)c2ccccc2C1=O | > 30 | > 30
18 | OC1=C2C(=Nc3ccccc3SC2c2ccccc2)c2ccccc21 (centres undefined) | > 30 | > 30
19 | COc1cc(C(=O)Nc2ccc(-c3nc4ccccc4[nH]3)cc2)cc(OC)c1OC | > 30 | > 30
20 | CCOc1ccc(N2C(N)=NC(N)=NC2(C)C)cc1 | > 30 | > 30
21 | COc1cccc(Nc2nc(N)c3ccccc3n2)c1 | > 30 | 28.1

Row | Structure (SMILES) | IC50 (Entamoeba histolytica) [µM] | IC50 (Toxoplasma gondii) [µM]
22 | Cc1ccc(C(=O)c2oc3ccc4c(C)cc(=O)oc4c3c2C)cc1 | > 30 | > 30
23 | COc1ccc(CN2CCCC(C(=O)c3ccc(C(F)(F)F)cc3)C2)c(O)c1 (centres undefined) | > 30 | > 30
24 | COC(=O)c1ccc(C2C3=C(O)CC(c4ccc(F)cc4)CC3=Nc3ccccc3N2C(=O)c2ccccc2)cc1 (centres undefined) | > 30 | > 30
25 | CCCCCCc1cc2cc(-c3csc(C=Cc4ccccc4)n3)c(=O)oc2cc1O | > 30 | > 30
26 | O=C(CCl)NCCOc1ccc(Cl)cc1Cl | > 30 | > 30
27 | Oc1ccc(-c2nc(-c3ccc4oc5ccc(-c6[nH]c(-c7ccc(O)cc7)nc6-c6ccccc6)cc5c4c3)c(-c3ccccc3)[nH]2)cc1 | > 30 | > 30
28 | CC(Oc1ccc(NC(=O)c2cccs2)cc1)C(=O)c1ccc(Cl)cc1 (centres undefined) | > 30 | 10.5
29 | CCOc1ccc(CN2CCN(CC(O)COc3ccc(OCC(O)CN4CCN(Cc5ccc(OCC)cc5)CC4)cc3)CC2)cc1 (centres undefined) | > 30 | > 30
30 | CCCCNc1nc(NC(C)(C)C)nc(NC(C)(C)C)n1 | > 30 | > 30
31 | COc1ccc(CNC(=O)c2cc3c(=O)n4ccccc4nc3n(CCc3ccccc3)c2=N)cc1 | > 30 | > 30
32 | Brc1ccc(Nc2nc3ccccc3nc2Nc2ccc(Br)cc2)cc1 | > 30 | > 30
33 | O=C(NC1CCN(Cc2ccccc2)CC1)c1cc(C(=O)NC2CCN(Cc3ccccc3)CC2)cc(C(=O)NC2CCN(Cc3ccccc3)CC2)c1 | > 30 | > 30
34 | COc1ccc(CCn2c(=N)c(C(=O)NCc3cccnc3)cc3c(=O)n4cccc(C)c4nc32)cc1 | > 30 | > 30
35 | CC(=O)c1sc(NC(=O)Nc2ccc(C)cc2C)nc1C | > 30 | > 30
36 | COc1ccc(-c2cn3c(C(=O)Nc4ccccc4Cl)c(-c4ccccc4)c4c3n2CCCC4)cc1 | > 30 | > 30
37 | Cn1c(=O)n(C)c2cc(CNCCNc3ccnc4cc(Cl)ccc34)ccc21 | > 30 | > 30
38 | Cc1cc(Nc2ccc(OCc3ccccc3)cc2)nc2cc(O)ccc12 | > 30 | > 30
39 | CCN(CC)CCNc1ccnc2cc3ccccc3cc12 | > 30 | > 30
40 | CCOc1ccc2nc(C)cc(Nc3ccc(N(C)C)cc3)c2c1 | > 30 | > 30
41 | COc1ccc(Nc2cc(C)nc(NCc3ccccc3)n2)cc1 | > 30 | > 30
42 | N=c1c2ccccc2nnn1-c1cccc(C(F)(F)F)c1 | > 30 | > 30

Row | Structure (SMILES) | IC50 (Entamoeba histolytica) [µM] | IC50 (Toxoplasma gondii) [µM]
43 | COc1cc(-c2nc(-c3ccc(Sc4ccccc4)cc3)c(-c3ccccc3)[nH]2)cc(OC)c1O | > 30 | 5.85
44 | COc1ccc(C=C2SC(Nc3ccc(F)cc3)=NC2=O)c(OC)c1 | > 30 | > 30
45 | Oc1ccc2ccccc2c1CNc1nc2ccccc2[nH]1 | > 30 | > 30
46 | O=C(Nc1ccc(-c2nc3ccccc3[nH]2)cc1)c1ccc(Cl)c(Cl)c1 | > 30 | > 30
47 | O=C1c2ccc3c4c(ccc(c24)C(=O)N1CCCCO)C(=O)N(CCCCO)C3=O | > 30 | > 30
48 | O=C(Nc1ccc(-c2nc3cc(NC(=O)c4ccc(Cl)cc4)ccc3[nH]2)cc1)c1ccc(Cl)cc1 | > 30 | > 30
49 | OC(Cn1nnc2ccccc21)Cn1c2ccc(Br)cc2c2cc(Br)ccc21 (centres undefined) | > 30 | > 30
50 | CCOC(=O)c1cnc2ccc(OC)cc2c1Nc1ccc(N2CCN(C)CC2)cc1 | > 30 | > 30
51 | COc1ccccc1C(=O)ON=C(N)Cc1cccc2ccccc12 | > 30 | > 30
52 | COc1ccc(C(=O)C(CCC(CNC(C)(C)C)C(=O)c2ccc(OC)cc2)CNC(C)(C)C)cc1 (centres undefined) | > 30 | 8.23
53 | CCOc1cc2c(cc1OCC)C(c1cc(Cl)ccc1O)NCC2 (centres undefined) | > 30 | > 30
54 | COc1cc(C(=O)ON=C(N)Cc2cccc3ccccc23)cc(OC)c1OC | > 30 | > 30
55 | CN1C=C(c2ccc3ccccc3n2)C(c2c[nH]c3ccccc23)c2ccccc21 (centres undefined) | > 30 | > 30
56 | Oc1c(C(Nc2ccccn2)c2cccc(Oc3ccccc3)c2)ccc2cccnc12 (centres undefined) | > 30 | > 30
57 | COc1cc(-c2nc(-c3ccccc3)c(-c3ccccc3)[nH]2)cc(OC)c1O | > 30 | > 30
58 | Cc1ccc(-c2nc3ccccc3o2)cc1NCc1cc(Cc2ccccc2)ccc1O | > 30 | > 30
59 | OC(CNC1CCCCC1)Cn1c2ccc(I)cc2c2cc(I)ccc21 (centres undefined) | > 30 | > 30
60 | COc1ccc(C(O)(CCC(C)C)C(CN2CCOCC2)c2ccc(Cl)cc2)cc1 (centres undefined) | > 30 | > 30
61 | CCn1c2c(c(=N)c3c1CCC3)CCCC2 | > 30 | > 30
62 | O=C(Cc1ccccc1)NC(c1ccc(Cl)cc1)c1c(O)ccc2ccccc12 (centres undefined) | > 30 | > 30
63 | COc1cc(CNCCc2ccc(Cl)cc2)cc(OC)c1O | > 30 | > 30

Row | Structure (SMILES) | IC50 (Entamoeba histolytica) [µM] | IC50 (Toxoplasma gondii) [µM]
64 | Cc1ccc2c(C)nc(Nc3nc(C)cc(-c4ccccc4)n3)nc2c1 | > 30 | > 30
65 | c1ccc(CNc2nc(Nc3ccccc3)nc3ccccc23)cc1 | > 30 | > 30
66 | CCOc1ccc(Nc2ccnc3cc(Cl)ccc23)cc1 | > 30 | > 30
67 | Cc1cccc(N2C(=O)C3C(C2=O)C2(c4ccccc4)C(=O)C3(c3ccccc3)C(c3ccc4c(c3)OCO4)=C2c2ccc3c(c2)OCO3)c1 (centres undefined) | > 30 | > 30
68 | Oc1ccc(Br)cc1CN1CCN(Cc2ccc(Cl)cc2)CC1 | > 30 | 14.5
69 | Cc1ccc(F)cc1NC(=O)c1cc(Cl)ccc1Nc1ccccc1 | > 30 | > 30
70 | CCOc1ccc2nc(C)cc(Nc3ccc(Br)cc3)c2c1 | > 30 | > 30
71 | COc1cc2c3cc1Oc1c(OC)c(OC)cc4c1C(Cc1ccc(O)c(c1)Oc1ccc(cc1)CC3N(C)CC2)N(C)CC4 (centres undefined) | > 30 | > 30
72 | CCCCCCc1cc2cc(-c3nc4ccccc4[nH]3)c(=Nc3ccccc3C)oc2cc1O | > 30 | 6.28
73 | Cc1ccc(C)c(-c2csc(Nc3ccc(C)c(C)c3)n2)c1 | > 30 | > 30
74 | CCOc1c(Br)cc(C2C(C(=O)OC)=CN(C)C=C2C(=O)OC)cc1OC | > 30 | > 30
75 | COc1ccc2sc(N(Cc3cccnc3)C(=O)c3ccc(C#N)cc3)nc2c1 | > 30 | > 30
76 | CC1CC2=C(CC1CNCCCN(C)C)C(C)(C)CCC2 (centres undefined) | > 30 | > 30
77 | CN(C)c1ccc(N=Cc2ccc(N3CCOCC3)cc2)cc1 | > 30 | > 30
78 | CCOC(=O)c1cnc2ccc(OC)cc2c1NCc1ccccc1 | > 30 | > 30
79 | CCOC(=O)C1=CN(C)C=C(C(=O)OCC)C1c1cc(Br)c(OCC)c(OC)c1 | > 30 | > 30
80 | CC(C)(C)c1ccc(C2CC3=Nc4ccccc4N(C(=O)c4ccccc4Cl)C(c4ccc(F)cc4)C3=C(O)C2)cc1 (centres undefined) | > 30 | > 30
81 | CN1CCN(c2nc(Nc3ccc(O)cc3)nc3ccccc23)CC1 | > 30 | > 30
82 | CCCCc1c(CCC)c(=N)c2ccccc2n1C | > 30 | > 30
